Consider 18 compounds from patent US20230257367A1, “NOVEL THYROID HORMONE BETA RECEPTOR AGONIST” (Chengdu Kanghong Pharmaceutical Co., Ltd., priority 2020, published 2023).

For test [1], the target named is T1, TRβ-LBD/RXRα (Homo sapiens, UniProt P10828).
T1 construct: TRβ-LBD (Invitrogen, PV4764) with a GST tag were used; purchased Invitrogen (TRβ-LBD); Pharmaron (RXRα) PV4764
The test can be described thus: In vitro binding experiment (TR-FRET SRC2-2 co-activator peptide recruitment), TRβ. It is filed as biochemical. Particulars: 4 h incubation at room temperature. On the technique in general: In TR-FRET formats the signal depends on donor and acceptor labels being close together.

The target in test [2] is T2, TRβ (Homo sapiens, UniProt P10828).
T2 construct: host or cells: HEK293T
T2 sequence (P10828 217-461 limits assumed): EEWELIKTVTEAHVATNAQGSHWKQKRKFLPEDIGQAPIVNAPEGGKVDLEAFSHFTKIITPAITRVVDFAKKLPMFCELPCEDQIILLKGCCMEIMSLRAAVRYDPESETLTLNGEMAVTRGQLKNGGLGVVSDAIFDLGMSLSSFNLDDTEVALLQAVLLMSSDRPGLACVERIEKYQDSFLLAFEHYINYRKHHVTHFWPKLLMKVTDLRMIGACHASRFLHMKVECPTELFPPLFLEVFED
T2 sequence (P19793 227-458 partner limits assumed): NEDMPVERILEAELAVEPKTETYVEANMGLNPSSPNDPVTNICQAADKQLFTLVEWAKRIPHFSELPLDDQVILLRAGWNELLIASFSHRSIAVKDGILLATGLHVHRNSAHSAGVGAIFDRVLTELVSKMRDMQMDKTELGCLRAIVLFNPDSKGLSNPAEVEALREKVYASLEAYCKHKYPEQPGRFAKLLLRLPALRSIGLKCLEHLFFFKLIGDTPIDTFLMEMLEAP
The test can be described thus: In vitro TRβ cell transfection experiment (GAL4 luciferase reporter, HEK293T). It is filed as cell-based.

Test [3] has as its target T3, TRα (Homo sapiens, UniProt P10827).
T3 construct: host or cells: HEK293T
T3 sequence (P10827 1-410 isoform P10827-2): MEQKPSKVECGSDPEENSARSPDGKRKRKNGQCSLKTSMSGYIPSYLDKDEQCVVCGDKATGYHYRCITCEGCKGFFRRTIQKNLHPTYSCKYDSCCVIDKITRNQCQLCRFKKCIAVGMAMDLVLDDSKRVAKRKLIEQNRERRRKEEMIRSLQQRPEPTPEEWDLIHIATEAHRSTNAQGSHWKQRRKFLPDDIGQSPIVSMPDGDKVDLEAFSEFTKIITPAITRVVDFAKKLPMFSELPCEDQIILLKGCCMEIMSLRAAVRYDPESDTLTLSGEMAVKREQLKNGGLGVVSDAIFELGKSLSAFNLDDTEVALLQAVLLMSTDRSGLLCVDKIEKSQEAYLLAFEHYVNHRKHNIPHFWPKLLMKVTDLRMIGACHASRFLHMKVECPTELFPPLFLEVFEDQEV
T3 sequence (P19793 227-458 partner limits assumed): T2 sequence (P19793 227-458 partner limits assumed)
The test can be described thus: In vitro TRα cell transfection experiment (GAL4 luciferase reporter, HEK293T). It is filed as cell-based. On the technique in general: Reporter assays use an easily measured gene product as a stand-in for the process of interest.

In test [4] the target is T4, TRα-LBD/RXRα (Homo sapiens, UniProt P10827).
T4 construct: TRα-LBD (Invitrogen, PV4762), or TRβ-LBD (Invitrogen, PV4764) with a GST tag were used; purchased Invitrogen (TRα-LBD); Pharmaron (RXRα) PV4762
The test can be described thus: In vitro binding experiment (TR-FRET SRC2-2 co-activator peptide recruitment), TRα. It is filed as biochemical. The conditions noted are these: 4 h incubation at room temperature.

T4 sequence (P19793 whole entry partner, other chains not shown, the tested form may be a part): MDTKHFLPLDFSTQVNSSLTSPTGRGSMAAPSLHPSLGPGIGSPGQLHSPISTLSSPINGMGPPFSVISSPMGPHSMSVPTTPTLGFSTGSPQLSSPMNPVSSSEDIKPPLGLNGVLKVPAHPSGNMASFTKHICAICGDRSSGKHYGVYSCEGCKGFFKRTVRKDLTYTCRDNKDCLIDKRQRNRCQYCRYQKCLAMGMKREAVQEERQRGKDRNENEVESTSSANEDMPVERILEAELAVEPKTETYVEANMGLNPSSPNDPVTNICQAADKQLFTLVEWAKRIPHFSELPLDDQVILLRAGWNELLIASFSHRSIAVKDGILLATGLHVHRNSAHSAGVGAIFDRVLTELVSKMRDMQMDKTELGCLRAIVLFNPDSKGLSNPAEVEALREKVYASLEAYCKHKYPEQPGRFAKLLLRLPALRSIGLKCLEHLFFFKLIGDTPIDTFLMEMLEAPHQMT
T1 sequence (P19793 whole entry partner, other chains not shown, the tested form may be a part): as above

As for `CC(C)c1nc(Oc2c(Cl)cc(NCP(=O)(O)O)cc2Cl)ncc1O` [KH02], a half-maximal effect in test [1] (EC50) was put at 1.06 µM.
Turning to `CC(C)c1nc(Oc2c(Cl)cc(NCC(=O)O)cc2Cl)ncc1O` [KH04], the half-maximal effective concentration (EC50) (commonly the concentration that produces a half-maximal response) in test [2] came out at 1.28 µM; in test [1], 0.113 µM; in test [3], 2.49 µM; in test [4], 0.133 µM.
For `CC(C)c1nc(Oc2c(Cl)cc(-n3nc(C#N)c(=O)[nH]c3=O)c3c2CCO3)ncc1O` [KH07] the same measures were 0.208 µM, 0.048 µM, 0.964 µM and 0.31 µM.
Turning to `N#Cc1nn(-c2cc(Cl)c(Oc3ncc(O)c(Cc4ccccc4)n3)c(Cl)c2)c(=O)[nH]c1=O` [KH09], the EC50 in test [1] amounted to 0.066 µM; in test [4], 1.88 µM.
With `CC(C)c1nc(Oc2c(Cl)cc(-n3nc(C#N)c(=O)[nH]c3=O)c3c2CCC3)ncc1O` [KH13], the EC50 came to 1.13 µM in test [2], 0.054 µM in test [1], 2.74 µM in test [3] and 0.132 µM in test [4].
For `CC(C)c1nc(Oc2c(Cl)cc(-n3ncc(=O)[nH]c3=O)c3c2CCC3)ncc1O` [KH14] the same measures were 0.148 µM, 0.105 µM, 0.383 µM and 0.102 µM.
For the compound `[2H]C([2H])([2H])C(c1nc(Oc2c(Cl)cc(-n3nc(C#N)c(=O)[nH]c3=O)cc2Cl)ncc1O)C([2H])([2H])[2H]` [KH15], the concentration for a half-maximal effect (EC50) in test [2] is 0.205 µM; in test [1], 0.014 µM; in test [3] it was 1.46 µM; in test [4] it was 0.194 µM.
With `[2H]C([2H])([2H])C(c1nc(Oc2c(Cl)cc(-n3ncc(=O)[nH]c3=O)cc2Cl)ncc1O)C([2H])([2H])[2H]` [KH16], the EC50 in test [2] is 0.019 µM; in test [1] it was 0.012 µM; in test [3] it was 0.138 µM; in test [4], 0.106 µM.
On to `CC(C)c1nc(Sc2c(Cl)cc(-n3nc(C#N)c(=O)[nH]c3=O)cc2Cl)ncc1O` [KH17], for which the concentration for a half-maximal effect (EC50) came out at 0.021 µM in test [1] and 0.385 µM in test [4].
Consider `CC(C)c1nc(Sc2c(Cl)cc(-n3ncc(=O)[nH]c3=O)cc2Cl)ncc1O` [KH18], for which the 50% effective concentration (EC50) was determined as 0.007 µM in test [2], 0.011 µM in test [1], 0.028 µM in test [3] and 0.188 µM in test [4].
Take `N#Cc1nn(-c2cc(Cl)c(Oc3ncc(O)c(Cc4ccc(F)cc4)n3)c(Cl)c2)c(=O)[nH]c1=O` [KHE001]: the concentration for a half-maximal effect (EC50) is 0.258 µM in test [2], 0.007 µM in test [1], 0.563 µM in test [3] and 0.418 µM in test [4].
As to `O=c1cnn(-c2cc(Cl)c(Oc3ncc(O)c(Cc4ccc(F)cc4)n3)c(Cl)c2)c(=O)[nH]1` [KHE002], the EC50 is 0.004 µM in test [2], 0.003 µM in test [1], 0.039 µM in test [3] and 0.272 µM in test [4].
For `CC(C)c1nc(Oc2c(Cl)cc(-c3noc(=O)[nH]3)cc2Cl)ncc1O` [KHE003], the 50% effective concentration (EC50) was 0.746 µM in test [1] and 0.573 µM in test [4].
As for `N#Cc1nn(-c2cc(Cl)c(Oc3ncc(O)c(CC4CCCCC4)n3)c(Cl)c2)c(=O)[nH]c1=O` [KHE007], the EC50 in test [2] is 0.227 µM; in test [1], 0.089 µM; in test [3] it was 0.528 µM; in test [4] it was 5.12 µM.
In the case of `O=c1cnn(-c2cc(Cl)c(Oc3ncc(O)c(CC4CCCCC4)n3)c(Cl)c2)c(=O)[nH]1` [KHE008], the EC50 in test [2] was 0.008 µM; in test [1], 0.067 µM; in test [3] it was 0.049 µM; in test [4], 4.54 µM.
With `CCC(CC)c1nc(Oc2c(Cl)cc(-n3nc(C#N)c(=O)[nH]c3=O)cc2Cl)ncc1O` [KHE009], the EC50 in test [2] was found to be 0.074 µM; in test [1], 0.04 µM; in test [3], 0.507 µM; in test [4], 0.258 µM.
Turning to `CCC(CC)c1nc(Oc2c(Cl)cc(-n3ncc(=O)[nH]c3=O)cc2Cl)ncc1O` [KHE010], the concentration giving a half-maximal response (EC50) amounted to 0.029 µM in test [1] and 0.22 µM in test [4].
With `N#Cc1nn(-c2cc(Cl)c(Oc3ncc(O)c(C4CC(F)(F)C4)n3)c(Cl)c2)c(=O)[nH]c1=O` [KHE019], the EC50 was found to be 0.254 µM in test [1] and 2.38 µM in test [4].
